Active and inactive are the calls of the source.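 How the source made its calls: active means a concentration killing half the fathead minnows in the acute test was determined; inconclusive means some fish died but not half at top dose; inactive means no fish died even at top dose.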

The data set deals with Fathead minnow (Pimephales promelas) acute toxicity, lethality. As to the kind of experiment: DSSTox (EPAFHM) EPA Fathead Minnow Acute Toxicity. The source says:
The EPA Fathead Minnow Acute Toxicity database was generated by the U.S. EPA Mid-Continental Ecology Division (MED) for the purpose of developing an expert system to predict acute toxicity from chemical structure based on mode of action considerations. […] A second valuable aspect of this database, from a QSAR modeling perspective, is the inclusion of general mode-of-action (MOA) classifications of acute toxicity response for individual chemicals derived from study results. MOA assignments are biologically based classifications, allowing definition of chemical similarity based upon biological activity instead of organic chemistry functional class as most commonly employed in QSAR study. MOA classifications should strengthen the scientific basis for construction of individual QSARs. However, it is cautioned that the broad MOA categorizations should not be construed to represent a single molecular mechanism; for example, CNS seizure agents and respiratory inhibitors are known to act through a variety of receptors. The EPA Fathead Minnow database and results have been used by EPA MED to build components of the ASTER prediction system, which incorporates MOA-based QSARs for the prediction of aquatic toxicity of environmental and industrial chemicals. Briefly, MOA classifications for individual chemicals, derived from experiments and provided in the EPA Fathead Minnow database, were used to derive substructural rules for assigning a new chemical to an MOA category based solely on chemical structure. Once a new chemical is assigned to an MOA category on this basis, the logP-based QSAR for that MOA category is applied.
The DSSTox EPAFHM database (available from the DSSTox Source URL) includes information pertaining to organic chemical class assignments (ChemClass_FHM), acute toxicity in fathead minnow (LC50_mg), dose-response assessments (LC50_Ratio, ExcessToxicityIndex), behavioral assessments (FishBehaviorTest), joint toxicity MOA evaluations of mixtures (MOA_MixtureTest), and additional MOA evaluation of fish acute toxicity syndrome (FishAcuteToxSyndrome) in rainbow trout. All of these indicators, to the extent available, were considered in the determination of MOA and, additionally, were used to determine a level of confidence in the MOA assignment for each chemical (MOA_Confidence). […] Activity Score is mapping of LOG10 (1/LC50_mmol) activity values spanning activity range [MIN, MAX] onto Integer 1-100 Activity range, where 100 is highest potency and 1 is lowest. If Activity Outcome is "active": Activity Score = 100 * INTEGER[(log10(1/ LC50_mmol) - MIN)/([…])].
With `CC(=O)Nc1ccc(O)cc1`, the Potency was 5390 µM. Still for that read-out and setting: then `CNC(=O)Oc1cccc2ccccc12`, with 43.5 µM.

As to `Nc1ccc(Cl)c(Cl)c1`, the Potency is 46.7 µM. Still for that read-out and setting: then `C=C(C)C(=O)OCC1CCCO1` (centres undefined), with 204 µM. For the compound `Cc1cc(Oc2ccc([N+](=O)[O-])cc2)ccc1Cl`, the outcome is “inactive; moa not determined either due to lack of toxicity at saturation or late test res”. Consider `CCOC(=O)CCCCCCCCC(=O)OCC`, for which the Potency is 10.5 µM. `NCCc1ccccn1`: the outcome is “inactive; moa not determined either due to lack of toxicity at saturation or late test res”. Regarding `CCNCc1ccccc1`, the Potency is 422 µM.

`COc1cc(C=O)ccc1O`: the Potency is 551 µM.

Take `O=[N+]([O-])c1ccc(O)cc1`: the Potency is 322 µM. On the same count and under the same terms, then `Oc1c(O)c(Cl)c(Cl)c(Cl)c1Cl`, with 5.12 µM; and `CCCSCCC`, with 184 µM. On the same count and under the same terms, with `Nc1ccc(Br)cc1` the figure was 276 µM; with `O=S(Cc1ccccc1)Cc1ccccc1`, 348 µM; with `Cc1ccccc1C=O`, 440 µM. The same measure, in the same setting: with `CCc1cccc(CC)c1N(COC)C(=O)CCl` the figure was 18.5 µM. Regarding `Oc1c(Cl)cc(Cl)c(Cl)c1Cl`, the Potency is 4.44 µM. Same read-out and setting: then `O=Cc1ccccc1F`, with 10.9 µM; and `CCCN(CCC)CCC`, with 355 µM; and `ClCCl`, with 3890 µM.

With `CCOP(=S)(Oc1ccc([N+](=O)[O-])cc1)c1ccccc1` (centres undefined), the Potency was 0.243 µM. Take `Cc1cccnc1`: the Potency is 1550 µM. The same measure, in the same setting: with `CCCC=O` the figure was 204 µM. `CCCCCCC(C)=O`: the Potency is 281 µM. On the same count and under the same terms, then `CC12CCC(CC1)C(C)(C)O2`, with 661 µM; and `CN(C)CCCCl`, with 841 µM; and `Cc1ccc(N)c(Cl)c1`, with 254 µM.

On to `O=C(O)c1ccccc1`, for which the Potency is 3360 µM. Still for that read-out and setting: with `C#CCN(CC#C)CC#C` the figure was 2260 µM; with `CCOP(=S)(OCC)SCCSCC`, 9.95 µM. On the same count and under the same terms, with `C1CCOC1` the figure was 30000 µM; with `CCOC(=O)c1ccc(N)cc1`, 216 µM; with `BrC(Br)c1ccccc1C(Br)Br`, 1.04 µM. As to `BrCC1CCCCO1` (centres undefined), the Potency was 1150 µM.

With `ClCCN1CCCC1`, the Potency was 900 µM. On the same count and under the same terms, with `ClCCCl` the figure was 1370 µM; with `COC(=O)c1ccc(Cl)cc1`, 64 µM. Still for that read-out and setting: then `CCOCCOCCO`, with 198000 µM. As for `OCCN(CCO)c1ccccc1`, the Potency is 4060 µM. Consider `CCNc1cccc(C)c1`, for which the Potency is 366 µM. Same read-out and setting: with `C=CCC#N` the figure was 2710 µM. Still for that read-out and setting: with `O=c1ccc(Cl)c[nH]1` the figure was 8800 µM. Same read-out and setting: with `COC(C)(C)C` the figure was 7620 µM.

In the case of `COc1cccc(OC)c1C`, the Potency is 133 µM. Same read-out and setting: with `CCC1(c2ccccc2)C(=O)NC(=O)NC1=O` the figure was 2080 µM; with `Cc1c(Cl)cccc1NC=O`, 275 µM. Same read-out and setting: then `CCOC(=O)c1cccc(N)c1`, with 302 µM; and `C=CCNc1ccccc1`, with 270 µM; and `CCC(=O)O`, with 49900 µM. For the compound `CCCCCCCBr`, the Potency is 8.21 µM.

In the case of `NCCCN`, the Potency was 16100 µM. For the compound `O=Cc1cc(Cl)ccc1O`, the Potency is 4.92 µM. As for `ClC=C(Cl)Cl`, the Potency was 336 µM. For the compound `O=C1c2ccccc2C(=O)c2ccccc21`, the outcome is “inactive; moa not determined either due to lack of toxicity at saturation or late test res”.

In the case of `Cc1ccc(O)cc1`, the Potency was 153 µM. Turning to `CNC(=O)O/N=C/C(C)(C)SC`, the Potency was 4.52 µM. On the same count and under the same terms, with `CCC[CH2][Sn]([CH2]CCC)([CH2]CCC)[CH2]CCC` the figure was 0.13 µM; with `CCCCOC(=O)c1ccc(C(=O)OCCCC)cc1`, 2.12 µM. The same measure, in the same setting: then `OC1CCCCC1`, with 7030 µM; and `CC#N`, with 40100 µM; and `CC(=O)c1cccc(N)c1`, with 2830 µM. Regarding `O=[N+]([O-])c1cc([N+](=O)[O-])c2ccccc2c1O`, the Potency was 14.5 µM. Take `CCOC(C)=O`: the Potency was 2610 µM. The same measure, in the same setting: with `CCCCCCCCC#N` the figure was 37.7 µM; with `C=Cc1cccc(CCl)c1`, 2.03 µM. Take `C=C(C)C(=O)OCCOCC`: the Potency is 175 µM. The same measure, in the same setting: with `O=P(c1ccccc1)(c1ccccc1)c1ccccc1` the figure was 193 µM. On the same count and under the same terms, then `CCN(CC)c1ccc(C=O)c(O)c1`, with 27.7 µM. As for `c1cc[c]([Sn]([c]2ccccc2)([c]2ccccc2)[c]2ccccc2)cc1`, the outcome was “inactive; moa not determined either due to lack of toxicity at saturation or late test res”. Turning to `O=[N+]([O-])c1ccc(O)cc1C(F)(F)F`, the Potency was 44.1 µM. As to `OCCOc1ccccc1`, the Potency is 2490 µM. The same measure, in the same setting: then `CCCCCCCCN`, with 40.2 µM; and `NCCN`, with 3660 µM.

For `O=[N+]([O-])c1ccc(Oc2ccc(Br)cc2)c([N+](=O)[O-])c1`, the outcome was “inactive; moa not determined either due to lack of toxicity at saturation or late test res”. On to `O=Cc1cc(O)ccc1[N+](=O)[O-]`, for which the Potency is 251 µM. Regarding `CCCCCCCCOC(=O)c1ccccc1C(=O)OCCCCCCCC`, the outcome is “inactive; moa not determined either due to lack of toxicity at saturation or late test res”.

As for `C#CC(C)(C)O`, the Potency is 39100 µM.

`Cc1c[nH]c2ccccc12`: the Potency was 67.4 µM. `CC(C)=O`: the Potency was 123000 µM. Same read-out and setting: with `CCCC(C)=O` the figure was 14400 µM; with `O=C(c1ccccc1)c1ccccc1`, 80.7 µM; with `CCOP(=S)(OCC)Oc1ccc(S(C)=O)cc1` (centres undefined), 140 µM. Consider `C=CC(C)(O)CC/C=C(\C)CCC=C(C)C` (centres undefined), for which the Potency was 6.43 µM. Same read-out and setting: then `CCCCOC(=O)/C=C/C(=O)OCCCC`, with 2.76 µM; and `Cc1cc(C(C)(C)C)c(O)c(C(C)(C)C)c1`, with 1.65 µM; and `Cc1ccccc1O`, with 129 µM. Same read-out and setting: with `Oc1c(Cl)cc(Cl)c(Cl)c1Cc1c(O)c(Cl)cc(Cl)c1Cl` the figure was 0.0516 µM; with `N#Cc1cc(Cl)ccc1N`, 187 µM. On the same count and under the same terms, with `ON=C1CCCCC1` the figure was 1840 µM. For the compound `OCC(F)(F)F`, the Potency is 1190 µM. On the same count and under the same terms, with `ClC(Cl)=C(Cl)Cl` the figure was 99.5 µM; with `CCOC(=O)C(Cc1ccccc1)C(=O)OCC`, 21.7 µM.

`CCOP(=O)(Cc1ccccc1)OCC`: the Potency was 1470 µM. The same measure, in the same setting: with `O=C(NC1CCCCC1)OCCCl` the figure was 170 µM. On the same count and under the same terms, then `C=C(C)C(=C)C`, with 84.1 µM. As to `CCCCCCCCCCCCc1ccc(N)cc1`, the outcome is “inactive; moa not determined either due to lack of toxicity at saturation or late test res”. As for `NC(=O)c1ccc(Cl)cc1Cl`, the Potency was 503 µM.

On to `OCC#CCO`, for which the Potency is 623 µM. Still for that read-out and setting: then `CC(=O)CC(=O)c1ccccc1`, with 6.78 µM; and `CN(C)N`, with 131 µM. Same read-out and setting: then `Cc1ccc(C)cc1`, with 83.5 µM; and `NCCO`, with 33900 µM. On to `CCCCCC(=O)OCC`, for which the Potency was 61.7 µM.

Regarding `CCCOC(C)=O`, the Potency is 587 µM.

The record behind these values is PubChem BioAssay AID1188 (EPA DSSTox, 2008).
